The nature of series [1]: Selective index, ratio of CC50 for African green monkey Vero cells to IC50 for MERS-CoV infected in African green monkey Vero cells.
The test system of a further series is Vero. The series can be described thus: Cytotoxicity against African green monkey Vero cells assessed as reduction of cell viability by WST-1 assay. Type of series: cell-based. The following applies: chlorocebus sabaeus. (Formazan colour is commonly taken as a measure of viable cells.)
Series [2] can be described thus: Selective index, ratio of CC50 for African green monkey Vero cells to IC50 for SARS-CoV-2 infected in African green monkey Vero cells.
A further series deals with SARS-CoV-2. Briefly: Antiviral activity against SARS-CoV-2 infected in African green monkey Vero cells assessed as inhibition of viral infection by measuring nucleocapsid protein level by immunofluorescence microscopic analysis. Conditions: Severe acute respiratory syndrome coronavirus 2, Vero. Format: functional, organism-based.
For series [3], the system named is Middle East respiratory syndrome-related coronavirus. Briefly: Antiviral activity against MERS-CoV infected in African green monkey Vero cells assessed as inhibition of viral infection by measuring reduction in spike protein level by immunofluorescence microscopic analysis. Type of series: functional, organism-based.

The values that follow come from ChEMBL document CHEMBL4732249, “Design, synthesis and biological evaluation of 2-aminoquinazolin-4(3H)-one derivatives as potential SARS-CoV-2 and MERS-CoV treatments” (Bioorg Med Chem Lett, 2021).

Broadly, the CC50 is the concentration giving 50% cytotoxicity. The term IC50 denotes the concentration at which inhibition is half-maximal. For `O=c1[nH]c(Nc2cc(F)cc(F)c2)nc2cc(C(F)(F)F)ccc12`, the results for the “Ratio CC50/IC50” value in series [1] and in series [2] were 35 and 38, respectively. Besides, the CC50 with Vero was not below 7.6 µM. Besides, the half-maximal inhibitory concentration (IC50) in the series on SARS-CoV-2 stood at 0.2 µM; in series [3], 0.73 µM.
In the same order, the values of `O=c1[nH]c(Nc2cc(Cl)cc(Cl)c2)nc2cc(C(F)(F)F)ccc12` are 7.6, 34, 7.1 µM, 0.21 µM and 0.96 µM.
Take `CC(C)Nc1nc2cc(Cl)ccc2c(=O)[nH]1`: the CC50 in the series on Vero is more than 25 µM. The “Ratio CC50/IC50” value in series [2] is listed as 1. In the series with SARS-CoV-2, the IC50 was more than 25 µM.
For the molecule `O=c1[nH]c(Nc2ccc(F)cc2F)nc2cc(Cl)ccc12`, the CC50 in the series on Vero is more than 25 µM. In addition, the “Ratio CC50/IC50” value in series [2] was 1. Further, in the series with SARS-CoV-2, the IC50 is more than 25 µM.
For the molecule `COc1cccc2nc(Nc3cc(F)cc(F)c3)[nH]c(=O)c12`, the CC50 in the series with Vero is more than 25 µM. The “Ratio CC50/IC50” value in series [2] is 1. Also, in the series on SARS-CoV-2, the IC50 is more than 25 µM.
On to `O=c1[nH]c(Nc2ccc(F)c(F)c2F)nc2cc(Cl)ccc12`, for which, in the series on Vero, the CC50 is more than 25 µM. In addition, the “Ratio CC50/IC50” value in series [2] turned out to be 9.4. Besides, in the series with SARS-CoV-2, the IC50 worked out at 2.6 µM.
As to `COC(=O)c1cccc(Nc2nc3cc(Cl)ccc3c(=O)[nH]2)c1`, the CC50 in the series with Vero is more than 25 µM. In series [2], the “Ratio CC50/IC50” value is 2.8. The IC50 in the series on SARS-CoV-2 is 8.8 µM.
For `O=c1[nH]c(Nc2cc(F)cc(F)c2)nc2cccc(O)c12`, the “Ratio CC50/IC50” value in series [1] was 22; in series [2], 54. For the same molecule, the CC50 with Vero is more than 25 µM. For the same molecule, the IC50 in the series with SARS-CoV-2 came out at 0.47 µM; in series [3] it was 1.1 µM.
Regarding `O=c1[nH]c(NCC2CCCCC2)nc2cc(Cl)ccc12`, in the series with Vero, the CC50 was more than 25 µM. Moreover, the “Ratio CC50/IC50” value in series [2] was 1.7. Besides, the IC50 in the series on SARS-CoV-2 turned out to be 14 µM.
As to `O=c1[nH]c(Nc2cc(Cl)cc(Cl)c2)nc2c(O)cccc12`, the results for the “Ratio CC50/IC50” value in series [1] and in series [2] were 14 and 65, respectively. Also, in the series with Vero, the CC50 is more than 25 µM. The IC50 with SARS-CoV-2 was found to be 0.37 µM; in series [3], 1.7 µM.
The matching figures for `O=c1[nH]c(Nc2cc(Cl)cc(Cl)c2)nc2cc([N+](=O)[O-])ccc12`: 1, 49, more than 25 µM, 0.51 µM and more than 25 µM.
Regarding `Cc1cc(C)c2nc(Nc3cc(F)cc(F)c3)[nH]c(=O)c2c1`, the CC50 in the series with Vero is more than 25 µM. Further, in series [2], the “Ratio CC50/IC50” value is on record as 1. Besides, in the series with SARS-CoV-2, the IC50 was more than 25 µM.
For `CCCCNc1nc2cc(Cl)ccc2c(=O)[nH]1`, the CC50 with Vero is more than 25 µM. In addition, the “Ratio CC50/IC50” value in series [2] is 1. Moreover, in the series with SARS-CoV-2, the IC50 is more than 25 µM.
Regarding `O=c1[nH]c(Nc2cc(F)cc(F)c2)nc2c(Cl)c(Cl)ccc12`, the “Ratio CC50/IC50” value in series [1] worked out at 30; in series [2], 98. For the same molecule, in the series on Vero, the CC50 was more than 25 µM. In addition, the IC50 was 0.25 µM in the series on SARS-CoV-2 and 0.83 µM in series [3].
As for `O=c1[nH]c(Nc2ccc(F)cc2)nc2cc(Cl)ccc12`, the CC50 in the series on Vero is more than 25 µM. The “Ratio CC50/IC50” value in series [2] was 1. For the same molecule, the IC50 in the series on SARS-CoV-2 is more than 25 µM.
With `O=c1[nH]c(Nc2ccc(Cl)cc2Cl)nc2cc(Cl)ccc12`, the CC50 with Vero was more than 25 µM. Moreover, the “Ratio CC50/IC50” value in series [2] amounted to 1. The IC50 in the series with SARS-CoV-2 was more than 25 µM.
With `O=c1[nH]c(Nc2cc(F)cc(F)c2)nc2cc(Cl)ccc12`, the “Ratio CC50/IC50” value was determined as 65 in series [1] and 74 in series [2]. Besides, in the series on Vero, the CC50 is not below 18 µM. The values for the IC50 (in the series with SARS-CoV-2; in series [3]) were 0.24 µM and 0.39 µM, respectively.
The matching figures for `O=c1[nH]c(Nc2cc(F)cc(F)c2)nc2cc([N+](=O)[O-])ccc12`: 2.9, 61, more than 25 µM, 0.41 µM and 8.5 µM.
Take `O=c1[nH]c(Nc2ccccc2F)nc2cc(Cl)ccc12`: the CC50 with Vero was more than 25 µM. Moreover, the “Ratio CC50/IC50” value in series [2] is listed as 1. The IC50 in the series with SARS-CoV-2 is more than 25 µM.
`O=c1[nH]c(Nc2cccc(O)c2)nc2cc(Cl)ccc12`: in the series on Vero, the CC50 is more than 25 µM. In series [2], the “Ratio CC50/IC50” value was 1. Also, the IC50 in the series with SARS-CoV-2 was more than 25 µM.
As for `Cc1cc(C)c2nc(Nc3cc(Cl)cc(Cl)c3)[nH]c(=O)c2c1`, in the series on Vero, the CC50 was more than 25 µM. For the same molecule, the “Ratio CC50/IC50” value in series [2] came to 1. For the same molecule, the IC50 in the series with SARS-CoV-2 was more than 25 µM.
Regarding `O=c1[nH]c(Nc2cc(Cl)cc(Cl)c2)nc2cc(O)ccc12`, the CC50 with Vero was more than 25 µM. Further, the “Ratio CC50/IC50” value in series [2] stood at 1. Further, in the series with SARS-CoV-2, the IC50 was more than 25 µM.
Turning to `Nc1ccc2c(=O)[nH]c(Nc3cc(Cl)cc(Cl)c3)nc2c1`, the CC50 in the series with Vero is more than 25 µM. The “Ratio CC50/IC50” value in series [2] was 1. The IC50 with SARS-CoV-2 is more than 25 µM.
Consider `O=c1[nH]c(Nc2cc(F)cc(F)c2)nc2c(Cl)ccc(Cl)c12`, for which the “Ratio CC50/IC50” value is given as 31 in series [1] and 76 in series [2]. Besides, the CC50 with Vero was more than 25 µM. Moreover, the IC50 worked out at 0.33 µM in the series with SARS-CoV-2 and 0.79 µM in series [3].
Turning to `O=c1[nH]c(Nc2cccc(F)c2)nc2cc(Cl)ccc12`, the 50% cytotoxic concentration (CC50) in the series with Vero was more than 25 µM. Also, the “Ratio CC50/IC50” value in series [2] is listed as 18. In addition, the IC50 in the series with SARS-CoV-2 worked out at 1.4 µM.
In the same order, the values of `O=c1[nH]c(Nc2cc(O)cc(O)c2)nc2cc(Cl)ccc12` are more than 25 µM, 1 and more than 25 µM.
The matching figures for `O=c1[nH]c(Nc2cc(Cl)cc(Cl)c2)nc2cc(N3CCOCC3)ccc12`: more than 25 µM, 1 and more than 25 µM.
On to `O=c1[nH]c(N2CCCCC2)nc2cc(Cl)ccc12`, for which the CC50 with Vero was more than 25 µM. Further, in series [2], the “Ratio CC50/IC50” value is on record as 1. Also, the IC50 in the series with SARS-CoV-2 is more than 25 µM.
Turning to `O=c1[nH]c(Nc2cc(F)cc(F)c2)nc2cc(O)ccc12`, the CC50 in the series with Vero was more than 25 µM. Also, the “Ratio CC50/IC50” value in series [2] was found to be 1. Further, the IC50 in the series on SARS-CoV-2 is more than 25 µM.
Consider `O=c1[nH]c(Nc2cccc(C(F)(F)F)c2)nc2cc(Cl)ccc12`, for which, in the series on Vero, the CC50 is more than 25 µM. The “Ratio CC50/IC50” value in series [2] was found to be 37. In addition, the IC50 in the series with SARS-CoV-2 worked out at 0.68 µM.
The matching figures for `COc1cccc2nc(Nc3cc(Cl)cc(Cl)c3)[nH]c(=O)c12`: more than 25 µM, 1 and more than 25 µM.
As for `O=c1[nH]c(Nc2cc(Cl)cc(Cl)c2)nc2c(Cl)ccc(Cl)c12`, the “Ratio CC50/IC50” value turned out to be 42 in series [1] and 71 in series [2]. Also, the CC50 in the series with Vero was more than 25 µM. Further, the IC50 worked out at 0.35 µM in the series on SARS-CoV-2 and 0.62 µM in series [3].
As for `N#Cc1cccc(Nc2nc3cc(Cl)ccc3c(=O)[nH]2)c1`, the CC50 in the series on Vero is more than 25 µM. Moreover, the “Ratio CC50/IC50” value in series [2] was found to be 15. For the same molecule, the IC50 with SARS-CoV-2 stood at 1.7 µM.
In the same order, the values of `COc1cccc(Nc2nc3cc(Cl)ccc3c(=O)[nH]2)c1` are more than 25 µM, 2.3 and 11 µM.
On to `Nc1ccc2c(=O)[nH]c(Nc3cc(F)cc(F)c3)nc2c1`, for which the CC50 in the series with Vero is more than 25 µM. In addition, the “Ratio CC50/IC50” value in series [2] is 1. In the series on SARS-CoV-2, the IC50 is more than 25 µM.
For the molecule `O=c1[nH]c(Nc2cc(Cl)cc(Cl)c2)nc2c(Cl)c(Cl)ccc12`, the “Ratio CC50/IC50” value in series [1] came to 31; in series [2], 103. The CC50 with Vero is more than 25 µM. The IC50 in the series with SARS-CoV-2 was found to be 0.24 µM; in series [3], 0.88 µM.
